According to patent US8598157B2, “5-alkynyl-pyridines” (Boehringer Ingelheim International GmbH, priority 2011, dated 2013):

How the values were obtained:
[1] = system: U87 cells; assay: U87 cell assay (antiproliferative/cytotoxicity); type: cell-based; conditions: U-87MG human glioblastoma cells
Excerpt: (§1) The H460, MB453, U87, MCF7 and BT474 alamarBlue cell assays provide EC50 values indicative of the antiproliferative or cytotoxic effects of the compounds to respectively the H460 (human non small cell line cancer), MB-453 (breast cancer cell line), U87 (glioblastoma cell line), MCF7 (breast cancer cell line) and BT474 (breast cancer cell line). As known in the field, antiproliferative or cytotoxic effect against this cell lines would be expected to be indicative of activity in treating lung, breast and brain cancers. See R. Marone R et al. Biochim. Biophys. Acta. 2008 January; 1784(1):159-85. S. Yaguchi et al., J. Natl. Cancer Inst. 2006 Apr. 19; 98(8):545-56.
(§2) Method Type: Antiproliferative/Cytotoxicity
(§3) alamarBlue® is designed to provide a rapid and sensitive measure of cell proliferation and cytotoxicity in various human and animal cell lines. The assay is based on the reduction of alamarBlue in the reducing environment of living (metabolically active) cells. In the presence of added cytotoxic or antiproliferative compounds, the innate metabolic activity ceases.
(§4) AlamarBlue is soluble and stable in culture medium. Measurements are made fluorometrically by exciting at 530-560 nm and measuring emission at 590 nm. In reporting percent alamarBlue reduction by monitoring fluorescence, data are expressed as fluorescence emission intensity units as a function of time of incubation.
(§5) 3. Equipment • 96-well plates, flat bottom (Falcon, Cat. No.: 353072) • 96-well plates, U-shaped (Costar, Cat. No.: 3799) • CO2-Incubator • Microplate Reader, Spectramax Plus, Molecular Devices 4. Typical Procedure • Day 0: Seed 3000 BT-474 cells (IMDM/5% FCS, 1% NEAA, 1% Sodiumpyruvat) in 150 μl medium into a 96-well plate, flat bottom (include mediumblank). Incubate plates at 37° C. in a CO2 incubator overnight. • Day 1: Dilute compounds to a concentration 40 μM->1:3 in medium, 10 dilution steps, in 96-well plates. • Add 50 μl per well of each dilution (total volume per well 200 μl; final conc. of cpds: 10 μM->1:3). If required, test further dilutions. • All concentrations are tested in duplicates. • Controls: Cells w/o cpd. (+50 μl medium/DMSO). • Cells are incubated with compounds for 5-6 days. • Day 6 or 7: Add 25 μl of alamarBlue solution to each well and incubate for 8 hours at 37° C. Measure fluorescence by exciting at 530-560 nm and measuring emission at 590 nm. 5. Evaluation • Subtract average value for medium blank from sample readings • Calculate EC50 using GraphPad Prism (Fifty)

[2] = system: MB453 cells; assay: alamarBlue MB453 cell assay (antiproliferative/cytotoxicity); type: cell-based; conditions: Homo sapiens; MDA MB 453 breast cancer cell line
Excerpt: as §1, §2, §3, §4, §5

[3] = system: H460 cells; assay: alamarBlue H460 cell assay (antiproliferative/cytotoxicity); type: cell-based; conditions: NCI-H460; H460 human lung carcinoma cells
Excerpt: as §1, §2, §3, §4, §5

[4] = system: BT474 cells; assay: alamarBlue BT474 cell assay (antiproliferative/cytotoxicity); type: cell-based; conditions: BT-474 human breast cancer cell line
Excerpt: as §1, §2, §3, §4, §5

[5] = biological target: PI3Kalpha (Homo sapiens (Human), UniProt P42336); assay: Inhibition of PI3Kalpha-induced PIP-2 phosphorylation (filter-binding assay); type: biochemical; conditions: 33P-ATP, p85alpha/His-p110alpha, read-out: IC50 PI3Kα
Chain of PI3Kalpha (P42336 whole entry): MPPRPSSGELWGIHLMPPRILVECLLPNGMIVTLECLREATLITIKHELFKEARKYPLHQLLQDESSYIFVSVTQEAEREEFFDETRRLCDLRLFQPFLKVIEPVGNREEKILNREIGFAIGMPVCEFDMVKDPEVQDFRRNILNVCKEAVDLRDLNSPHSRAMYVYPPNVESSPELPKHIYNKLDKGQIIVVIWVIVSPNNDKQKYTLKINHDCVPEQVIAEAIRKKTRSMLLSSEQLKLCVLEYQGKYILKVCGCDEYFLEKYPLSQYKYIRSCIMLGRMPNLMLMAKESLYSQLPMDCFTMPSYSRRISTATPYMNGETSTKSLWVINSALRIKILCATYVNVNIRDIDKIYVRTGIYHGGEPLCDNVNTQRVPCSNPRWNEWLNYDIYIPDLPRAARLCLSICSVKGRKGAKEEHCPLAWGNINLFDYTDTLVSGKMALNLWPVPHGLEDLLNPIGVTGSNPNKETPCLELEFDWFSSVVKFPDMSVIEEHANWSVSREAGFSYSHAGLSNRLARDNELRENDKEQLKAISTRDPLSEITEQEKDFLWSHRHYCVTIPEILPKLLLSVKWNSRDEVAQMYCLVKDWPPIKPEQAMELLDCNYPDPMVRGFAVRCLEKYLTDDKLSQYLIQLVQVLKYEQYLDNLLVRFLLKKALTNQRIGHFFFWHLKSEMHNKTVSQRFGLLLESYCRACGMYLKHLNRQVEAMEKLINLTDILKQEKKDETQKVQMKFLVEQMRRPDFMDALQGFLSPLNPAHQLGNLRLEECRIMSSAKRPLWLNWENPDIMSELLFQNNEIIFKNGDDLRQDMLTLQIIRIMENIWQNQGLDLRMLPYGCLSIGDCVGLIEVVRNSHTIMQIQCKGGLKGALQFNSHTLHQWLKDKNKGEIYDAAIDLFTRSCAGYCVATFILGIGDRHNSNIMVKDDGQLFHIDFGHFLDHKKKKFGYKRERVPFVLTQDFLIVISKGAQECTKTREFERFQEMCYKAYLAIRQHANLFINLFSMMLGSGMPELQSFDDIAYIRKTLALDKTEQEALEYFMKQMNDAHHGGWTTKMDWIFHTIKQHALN
Excerpt: Inhibition of PI3Kalpha-Induced PIP-2 Phosphorylation
This PI3Kalpha assay provides an IC50 value indicative of the activity of the compounds to inhibit PI3 kinase alpha activity. Inhibition of PI3 kinase would be expected to be indicative of activity in treating conditions of excessive or anomalous cell proliferation, such as cancers. See also J. A. Engelman, Nature Reviews Cancer, 2009, 9, 550-562; A. Carnero, Expert Opin. Investig. Drugs, 2009, 18, 1265-1277 and P. Liu et al., Nature Reviews Drug Discovery, 2009, 8, 627-64.
Method Type: Filter-Binding-Assay
Aliquoted in desired amounts and stored at −80° C. Final assay concentration 25 ng/well • Phosphotyrosin PDGFRbeta-peptide H-CGG-pY-[…]-pY-VPMLDM-NH2 was synthesized by Jerini Peptide Technologies (JPT) and used in a final conc. of 1.7 μM (stock 100 μM prepared in Assay buffer with DTT, aliquoted in desired amounts and stored at −80° C.) • Cold ATP (from Sigma; A-7699), 100 μM stock solution in H2O, use 1 μM final concentration in assay • [33P]-ATP, 370 MBq/ml from Amersham (#AH9968), use 0.5 μCi/well (10 mCi/ml) • Clear 96-well plates from Greiner (#655 162) • Filter plates: Perkin Elmer UniFilter GF/B #6005177 • Microscint 0 (from Perkin Elmer, #6013611) 2. Assay Procedure
The substrate-containing lipid vesicles are dissolved to a concentration of 0.637 mg lipid blend/ml assay buffer (with BSA, freshly added) in 50 ml Falcon->keep on ice, followed by ultrasonication (pulse of 15 sec followed by a pause of 10 sec, 4×). Compounds are serially diluted in assay buffer+6% DMSO and […] of each dilution is added per well of a 96-well plate (compounds are tested in duplicates) and mixed with 30 μl of the lipid vesicles containing PDGFR-Peptide ([…]) and PI3K alpha (25 ng/well final). The mixture is then incubated for 20 minutes at room temperature. Subsequently, 20 μl of assay buffer containing […] cold ATP and 0.5 μCi/20 μl 33P-ATP are added. The plates are then incubated at room temperature for 120 minutes (shaking with 300 rpm).
The reaction mix is transferred onto filter plates using “filtermate harvester” from Packard: filter plates are rinsed with PBS, then the reaction mix is filtered onto the filter plate, washed 5 times with PBS and are allowed to dry for 30-60 minutes at 50° C.
The plate bottom is sealed with Perkin Elmer white adhesive foil and 25 μl/well Microscint( ) are added, the top is covered with transparent adhesive foil and the plate is measured with Wallac Trilux 1450 Microbeta Counter.
As positive control serve wells containing vehicle controls (1% DMSO in assay buffer), showing non-inhibited kinase activity (high values). Wells containing assay buffer instead of enzyme can serve as control for background activity (low values).
Calculate IC50 values using the Smiley program (based on GrapPad Prism)

[6] = system: MCF7 cells; assay: alamarBlue MCF7 cell assay (antiproliferative/cytotoxicity); type: cell-based; conditions: MCF7 human breast cancer cell line
Excerpt: as §1, §2, §3, §4, §5

Structure (SMILES)	IC50 [5] [µM]	EC50 [1] [µM]	EC50 [2] [µM]	EC50 [3] [µM]	EC50 [4] [µM]	EC50 [6] [µM]
Cc1ncnc(N2CCOCC2)c1C#Cc1cncc(NS(C)(=O)=O)c1 [Example I-24, N-[5-(4-Methyl-6-morpholin-4-yl-pyrimidin-5-ylethynyl)-pyridin-3-yl]-methanesulfonamide]	0.004				2.36	1.11
CCc1nc(N)nc(N2CCC(OC)CC2)c1C#Cc1cnc(C)c(NS(C)(=O)=O)c1 [Example I-34, N-{5-[2-Amino-4-ethyl-6-(4-methoxy-piperidin-1-yl)-pyrimidin-5-ylethynyl]-2-methyl-pyridin-3-yl}-methanesulfonamide]	0.002				0.433	0.074
CCc1ncnc(N2CCC(OC)CC2)c1C#Cc1cnc(C)c(NS(C)(=O)=O)c1 [Example I-45, N-{5-[4-Ethyl-6-(4-methoxy-piperidin-1-yl)-pyrimidin-5-ylethynyl]-2-methyl-pyridin-3-yl}-methanesulfonamide]	0.004			0.141	0.284	0.062
CCc1ncnc(N2CCC(O)CC2)c1C#Cc1cnc(C)c(NS(C)(=O)=O)c1 [Example I-46, N-{5-[4-Ethyl-6-(4-hydroxy-piperidin-1-yl)-pyrimidin-5-ylethynyl]-2-methyl-pyridin-3-yl}-methanesulfonamide]				0.88	1.27	0.397
Cc1ncc(C#Cc2c(C)ncnc2N2CCOCC2)cc1NS(=O)(=O)c1cnn(C)c1 [Example I-51, 1-Methyl-1H-pyrazole-4-sulfonic acid [2-methyl-5-(4-methyl-6-morpholin-4-yl-pyrimidin-5-ylethynyl)-pyridin-3-yl]-amide]		0.315	0.199	0.196	0.311	0.012
COc1ncc(C#Cc2c(C)ncnc2N2CCOCC2)cc1NS(C)(=O)=O [Example I-81, N-[2-methoxy-5-(4-methyl-6-morpholin-4-yl-pyrimidin-5-ylethynyl)-pyridin-3-yl]-methylsulfonamide]	0.00064	0.51	0.233	0.181	0.076	
COc1ncc(C#Cc2c(C)ncnc2N2CCOCC2)cc1NS(=O)(=O)c1cnn(C)c1 [Example I-88, N-[2-methoxy-5-[2-(4-methyl-6-morpholin-4-ylpyrimidin-5-yl)ethynyl]pyridin-3-yl]-1-methylpyrazole-4-sulfonamide]	0.00055	0.027	0.008	0.021	0.062	

Now from value to compound, other results behind:

IC50 [5] [µM]	Structure (SMILES)	EC50 [1] [µM]	EC50 [2] [µM]	EC50 [3] [µM]	EC50 [4] [µM]	EC50 [6] [µM]
0.0004	COc1ncc(C#Cc2c(C)ncnc2N2CCOCC2)cc1NS(=O)(=O)c1ccccc1 [Example I-1, N-[2-Methoxy-5-(4-methyl-6-morpholin-4-yl-pyrimidin-5-ylethynyl)-pyridin-3-yl]-benzenesulfonamide]	0.055	0.047	0.019	0.014	0.004
0.0005	COc1ncc(C#Cc2c(C)ncnc2N2CCOCC2)cc1NS(=O)(=O)c1ccccc1OC(F)(F)F [Example I-82, 2-Trifluoromethoxy-N-[2-methoxy-5-(4-methyl-6-morpholin-4-yl-pyrimidin-5-ylethynyl)-pyridin-3-yl]-benzenesulfonamide]	0.05	0.027	0.024	0.025	
0.00044	COc1ncc(C#Cc2c(C)ncnc2N2CCOCC2)cc1NS(=O)(=O)c1ccccc1C(F)(F)F [Example I-83, 2-Trifluoromethyl-N-[2-methoxy-5-(4-methyl-6-morpholin-4-yl-pyrimidin-5-ylethynyl)-pyridin-3-yl]-benzenesulfonamide]	0.018	0.007	0.006	0.006	
0.0003	COc1ncc(C#Cc2c(C)ncnc2N2CCOCC2)cc1NS(=O)(=O)c1ccc(Cl)cc1 [Example I-84, 4-Chloro-N-[2-methoxy-5-(4-methyl-6-morpholin-4-yl-pyrimidin-5-ylethynyl)-pyridin-3-yl]-benzenesulfonamide]	0.024	0.049	0.041	0.048	
0.00038	COc1ncc(C#Cc2c(C)ncnc2N2CCOCC2)cc1NS(=O)(=O)c1ccc(Cl)s1 [Example I-85, 5-Chloro-N-[2-methoxy-5-(4-methyl-6-morpholin-4-yl-pyrimidin-5-ylethynyl)-pyridin-3-yl]-thiophene-2-sulfonamide]	0.064	0.04	0.047	0.034	
0.00039	COc1ncc(C#Cc2c(C)ncnc2N2CCOCC2)cc1NS(=O)(=O)c1cccs1 [Example I-86, N-[2-Methoxy-5-(4-methyl-6-morpholin-4-yl-pyrimidin-5-ylethynyl)-pyridin-3-yl]-thiophene-2-sulfonamide]	0.042	0.014	0.01	0.012	
0.00045	COc1ncc(C#Cc2c(C)ncnc2N2CCOCC2)cc1NS(=O)(=O)c1ccnn1C [Example I-87, N-[2-methoxy-5-[2-(4-methyl-6-morpholin-4-ylpyrimidin-5-yl)ethynyl]pyridin-3-yl]-2-methylpyrazole-3-sulfonamide]	0.054	0.015	0.03	0.02	
0.00053	COc1ncc(C#Cc2c(C)ncnc2N2CCOCC2)cc1NS(=O)(=O)c1ccc(C)o1 [Example I-89, N-[2-methoxy-5-[2-(4-methyl-6-morpholin-4-ylpyrimidin-5-yl)ethynyl]pyridin-3-yl]-5-methylfuran-2-sulfonamide]	0.042	0.038	0.026	0.063	
